The values below come from patent US11173146B2, “Selective activators of the intermediate conductance CA2+activated K+ channel KCa3.1 and their methods of use” (The Regents of the University of California, priority 2014, dated 2021).

“Also recorded” adds a separate entry of the source. Like-named read-outs stand apart in the source and are kept apart here.

For one series, the target named is KCa2.1 (Homo sapiens, UniProt Q92952). The following applies: literature, cited from earlier work.
Series [1] addresses T1, KCa3.1 (Homo sapiens, UniProt O15554+P0DP23). The series is described as follows: Whole-cell patch-clamp KCa3.1 activation (QPatch, HEK-293). The conditions noted are these: for effect of structural change on KCa2.3 and KCa3.1 activation compared with SKA-31: SAR, FIG. 2; for reduction of potency compared with SKA-31: KCa3.1. The format is cell-based. On the set-up: host or cells: HEK-293. An excerpt:
(§1) Cells, Cell lines and Clones. […] The cloning of hKCa2.3 (19 CAG repeats) and hKCa3.1 has been previously described (Wulff et al., 2000). The hKCa2.3 clone was later stably expressed in COS-7 cells at Aurora Biosciences Corp., San Diego, Calif. Cell lines stably expressing other mammalian ion channels were gifts from several sources: hKCa1.1 in HEK-293 cells (Andrew Tinker, University College London); hKV2.1 in HEK293 cells (James Trimmer, UC Davis); KV11.1 (HERG) in HEK-293 cells (Craig January, University of Wisconsin, Madison); hNaV1.4 in HEK-293 cells (Frank Lehmann-Horn, University of Ulm, Germany), hNaV1.5 in HEK-293 cells (Christopher Lossin, University of California Davis), and hCaV1.2 in HEK-293 cells (Franz Hofmann, Munich, Germany).
(§2) Electrophysiology. Experiments were conducted either manually with an EPC-10 amplifier (HEKA, Lambrecht/Pfalz, Germany) or on a QPatch-16 automated electrophysiology platform (Sophion Biosciences, Denmark). […] Patch pipettes were pulled from soda lime glass (micro-hematocrit tubes, Kimble Chase, Rochester, N.Y.) and had resistances of 2-3 MΩ. […] Free Ca^2+ concentrations were calculated with MaxChelator assuming a temperature of 25° C., a pH of 7.2 and an ionic strength of 160 mM. […] Na^+ aspartate Ringer was used as an external solution (in mM): 160 Na^+ aspartate, 4.5 KCl, 2 CaCl2, 1 MgCl2, 5 HEPES, pH 7.4, 290-310 mOsm. […] Reduction of both peak and tail current by the drug was determined. NaV1.7 currents were recorded with 30 ms pulses from −90 mV to −10 mV every 10 sec with a CsF-based pipette solution and normal Ringer as an external solution. CaV1.2 currents were elicited by 100-ms depolarizing pulses from −80 to 20 mV every 10 sec with a CsCl-based pipette solution and an external solution containing 30 mM BaCl2. Blockade of both Na^+ and Ca^2+ currents was determined as reduction of the current minimum.
For automated electrophysiology experiments cells were grown to ˜70% confluency, rinsed in sterile PBS containing 0.02% EDTA, and lifted with 2 mL of TrypLE™ Express (Gibco, Grand Island, N.Y.) for ˜2 min. When cells were rounded but not detached, they were dislodged by gentle tapping, suspended in DMEM, centrifuged and resuspended in 1 ml of external solution, placed into the Qfuge tube and resuspended in 150-200 μL extracellular solution after one additional spin on the QPatch. Whole-cell patch-clamp experiments were then carried out using disposable 16-channel planar patch chip plates (QPlates; patch hole diameter approximately 1 μm, resistance 2.00±0.02 MΩ). […] In order to avoid rejection of cells with large KCa3.1 currents the minimum seal resistance for whole-cell requirement was lowered to 0.001 GΩ. […] Following establishment of the whole-cell configuration, cells were held at −80 mV and KCa3.1, KCa2.1 or KCa2.2 currents elicited by a voltage protocol that held at −80 mV for 20 ms, stepped to −120 mV for 20 ms, ramped from −120 to 40 mV in 200 ms and then stepped back to −120 mV for 20 ms. This pulse protocol was applied every 10 s. […] NaV1.2 currents from N1E-115 cells, NaV1.4 and NaV1.5 currents from stably transfected HEK cells were recorded with 20 ms pulses from −90 mV to 0 mV every 10 sec with a KF-based internal solution and normal Ringer as an external solution. Current slopes (in ampere per sec) were measured using the SophionQPatch software and exported to Microsoft Excel and Origin 7.0 (OriginLab Corp. MA) for analysis. […] Data fitting to the Hill equation to obtain EC50 and IC50 values was performed with Origin 7.0. Data are expressed as mean±SD.

In another series the target is T2, human KCa2.3 (Homo sapiens, UniProt Q9UGI6).
T2 construct: The cloning of hKCa2.3 (19 CAG repeats) and hKCa3.1 has been previously described (Wulff et al., 2000)
The series is described as follows: Manual whole-cell patch-clamp KCa2.3 activation (COS-7). In kind it is cell-based.
From the text: as §1, §2
For all electrophysiology experiments solutions of benzothiazoles and benzooxazoles were always freshly prepared from 1 mM or 10 mM stock solutions in DMSO during the experiment. The final DMSO concentration never exceeded 1%. For automated assays glass vial inserts (Sophion Biosciences, Denmark) were filled with 350-400 μL of compound solution and placed into the glass insert base plate for use in the QPatch assay right before starting the QPatch.
The compounds synthesized by these methods as well as five commercially available compounds were tested for their KCa2.3 and KCa3.1 activating activity using either manual or automated whole-cell patch-clamp. Our group previously described the establishment of a QPatch assay for KCa3.1 modulators. […] We here made use of this assay and determined EC50 values for KCa3.1 activation using HEK-293 cells stably expressing human KCa3.1. Activities on human KCa2.3 were determined by manual electrophysioiogy since we currently only have KCa2.3 available in COS-7 cells, which are difficult to handle on the QPatch.

For series [2], the target named is T1, KCa3.1. The conditions noted are these: literature; cited from earlier work.
For series [3], the system named is porcine coronary arteries. The series is described as follows: Isometric myography on porcine coronary arteries, bradykinin-induced EDH-type relaxation. The following applies: blocker 1 μM.
From the text: Isometric Myography on Porcine Coronary Arteries (PCA). PCA were carefully dissected from hearts kindly provided by the local abattoir (Mercazaragoza, Zaragoza, Spain), cleaned of fat and connective tissue, and cut into 3-4 mm rings. Rings were mounted on hooks connected to an isometric force transducer (Pioden UF1, Graham Bell House, Canterbury, UK) and were pre-stretched to an initial tension of 1 g. […] Changes in tension were registered using a Mac Lab System/8e program (AD Instruments Inc., Milford, Mass.). The buffer contained the NO-synthase blocker, Nω-nitro-L-arginine (L-NNA, 300 μM), and the cyclooxygenase blocker indomethacin (10 μM) in order to measure EDH-type relaxation. […] After washout, rings were contracted with a high KCl buffer (60 mM) to determine maximal contraction. […] UCL1684 and U46619 were purchased from Tocris (Wiesbaden-Nordenstadt, Germany). Data analysis: EDH-type relaxations were determined as % change of U46619 contraction and are shown relative to the totally relaxed state (w/o U46619).
The mark [4] stands for this setting: Appendix A, read-out: KCa3.1 EC50 (converted).
Where [5] appears, read: 250 nM free Ca2+, read-out: EC50 for KCa3.1 activation.
The mark [6] stands for this setting: 250 nM free Ca2+, read-out: EC50 for KCa2.3 activation.
Where [7] appears, read: Appendix A, read-out: KCa2.3 EC50.

T2 sequence (Q9UGI6 with tags, fused parts or gaps DUP76-80): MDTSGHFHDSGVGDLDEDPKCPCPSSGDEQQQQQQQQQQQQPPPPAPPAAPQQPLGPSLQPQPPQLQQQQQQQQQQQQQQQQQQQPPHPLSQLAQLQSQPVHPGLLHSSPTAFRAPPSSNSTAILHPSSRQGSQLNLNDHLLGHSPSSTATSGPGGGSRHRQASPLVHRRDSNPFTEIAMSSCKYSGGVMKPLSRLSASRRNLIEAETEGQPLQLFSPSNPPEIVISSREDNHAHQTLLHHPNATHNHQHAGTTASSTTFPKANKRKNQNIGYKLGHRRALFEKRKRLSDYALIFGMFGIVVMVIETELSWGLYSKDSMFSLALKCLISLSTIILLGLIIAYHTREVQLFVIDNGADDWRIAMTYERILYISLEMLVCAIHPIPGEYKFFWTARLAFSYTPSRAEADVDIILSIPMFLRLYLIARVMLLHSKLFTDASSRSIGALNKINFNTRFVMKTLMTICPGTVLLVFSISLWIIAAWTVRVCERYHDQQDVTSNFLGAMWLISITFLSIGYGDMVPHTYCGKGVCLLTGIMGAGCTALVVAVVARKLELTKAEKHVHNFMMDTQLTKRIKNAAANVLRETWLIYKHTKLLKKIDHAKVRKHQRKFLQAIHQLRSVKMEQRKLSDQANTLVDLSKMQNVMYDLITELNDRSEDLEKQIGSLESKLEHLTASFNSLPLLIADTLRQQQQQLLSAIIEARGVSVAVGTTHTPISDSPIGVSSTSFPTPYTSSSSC

Turning to `CON=CNc1nc2nccc(C(C)Oc3ccc(Cl)cc3C)n2n1` (single isomer, unassigned; (-)) [(-)-CM-TMPF, N-{7-[1-(4-chloro-2-methylphenoxy)ethyl]-[1,2,4]triazolo[1,5-a]pyrimidin-2-yl}-N′-methoxy-formamidine], on KCa2.1 (Ca2+ concentrations between 10 and 100 nM), the “KCa2.1 currents increased to % of their maximal activity” value was “roughly 40%”. Regarding `Nc1nc(-c2ccc3ccccc3c2)cs1` [SKA-76, 2-amino-4-(2-naphthyl)thiazole], the “effect of structural change on KCa2.3 and KCa3.1 activation compared with SKA-31” value (shortened to “effect of structural change”) on KCa3.1 [1] was “reduced both potency and selectivity”. The molecule `Cc1cc(C)c2c(c1)-c1nc(N)sc1CC2` [SKA-108, 6,8-Dimethyl-4,5-dihydronaphtho[1,2-d]thiazol-2-amine] registered a melting point of 159 °C. Further, the “effect of structural change” value at KCa3.1 [1] was “reduced both potency and selectivity”.

With `Nc1nc(-c2cccc3ccccc23)cs1` [SKA-75, 2-Amino-4-(1-naphthyl)thiazole], on KCa3.1 [1], the “effect of structural change” value is “reduced both potency and selectivity”. Consider `Nc1nc2c(s1)CCc1ccccc1-2` [SKA-70, 4,5-Dihydronaphtho[1,2-d]thiazol-2-amine], for which the “effect of structural change” value at KCa3.1 [1] was “reduced both potency and selectivity”. For `Cc1nc2c(ccc3ccccc32)s1` [SKA-74, 2-methylnaphtho[1,2-d]thiazole], the EC50 at KCa3.1 [1] (setting [4]) is 7800 nM. For the same molecule, the “effect of structural change” value at KCa3.1 [1] was “completely abolished activity”. For `Cc1nc2cc3ccccc3cc2o1` [SKA-104, 2-methylnaphtho[2,3-d]oxazole] the same measures were above 50000 nM and “completely abolished activity”. Turning to `Cc1cc2oc(N)nc2c2ccccc12` [SKA-120, 5-Methylnaphtho[1,2-d]oxazol-2-amine], the EC50 on KCa3.1 [1] (setting [5]) was 180 nM; at KCa3.1 [1] (setting [4]), 450 nM. At KCa3.1 [1] (ratio of EC50 values), the “selectivity for KCa3.1 over KCa2.3” value was around 50 fold. On to `Nc1nc2c(cc3c4c(cccc42)CC3)s1` [SKA-73, 4,5-Dihydroaceoaphtho[5,4-d]thiazol-8-amine], for which the melting point was found to be 257 °C. In addition, the EC50 at human KCa2.3 (setting [6]) amounted to 1000 nM. In addition, the EC50 on KCa3.1 [1] (setting [5]) stood at 1000 nM. For the molecule `Nc1nc2c(cc(F)c3ccccc32)s1` [SKA-106, 5-Fluoronaphtho[1,2-d]thiazol-2-amme], the “reduction of potency compared with SKA-31” value on KCa3.1 [1] was “roughly 10 fold”. In the case of `c1cc2cc(c1)C[n+]1ccc(c3ccccc31)NCc1ccc(cc1)CNc1cc[n+](c3ccccc13)C2` [UCL1684, 6,10-diaza-3(1,3)8,(1,4)-dibenzena-1,5(1,4)-diquinolinacyclodecaphane, reference compound], the “effect on KCa2.3 currents activated by 20 μM SKA-121” value at human KCa2.3 (FIG. 4F) was “had a similar effect”. Consider `Nc1nc2c(ccc3ccccc32)o1` [SKA-102, Naphtho[1,2-d]oxazol-2-amine], for which the EC50 came to 24000 nM at human KCa2.3 (setting [7]) and 2700 nM at KCa3.1 [1] (setting [5]). Consider `N#Cc1cc2sc(N)nc2c2ccccc12` [SKA-107, 2-Aminonaphtho[1,2-d]thiazole-5-carbonitrile], for which the melting point came out at 265 °C. Moreover, on KCa3.1 [1], the “effect of structural change” value is “reduced potency and selectivity”. Consider `Nc1nc2c(s1)Cc1cc(F)ccc1-2` [SKA-71, 6-Fluoro-8H-indeno[1,2-d]thiazol-2-amine], for which the melting point is 217 °C (dec.). Besides, on KCa3.1 [1], the “effect of structural change” value is “reduced both potency and selectivity”. For `Cc1cc(NC2CCCCC2)nc(-n2nc(C)cc2C)n1` [CyPPA, cyclohexyl-[2-(3,5-dimethyl-pyrazole-1-yl-)6-methyl-pyrimidin-4-yl]-amine], at KCa3.1 [2], the “activity on KCa3.1” value is “completely inactive”. The “activity on KCa2.1” value on KCa2.1 is “completely inactive”. In turn, `Nc1nc2c(ccc3sccc32)s1` [SKA-110, Thieno[2′,3′:5,6]benzo[1,2-d]thiazol-2-amine] yielded a melting point of 161 °C. Besides, on KCa3.1 [1], the “effect of structural change” value was “reduction in potency”. Regarding `Cc1cc(C)c2ccc3sc(N)nc3c2c1` [SKA-109, 6,8-Dimethylnaphtho[1,2-d]thiazol-2-amine], the melting point was found to be 157 °C. Moreover, the “reduction of potency compared with SKA-31” value on KCa3.1 [1] was 10 fold. Turning to `CC1=Nc2c(ccc3ccccc23)C1(C)C` [SKA-92, 2,3,3-trimethyl-3H-benzo[g]indole], the results for the EC50 at human KCa2.3 (setting [7]) and at KCa3.1 [1] (setting [4]) were above 50000 nM and 42000 nM, respectively. For the same molecule, on KCa3.1 [1], the “effect of structural change” value is “completely abolished activity”. For the molecule `Nc1nc2c(s1)Cc1ccccc1-2` [SKA-69, 8H-Indeno[1,2-d]thiazol-2-amine], on KCa3.1 [1], the “effect of structural change” value was “reduced both potency and selectivity”.

`Nc1nc2c3c(ccc2s1)CCC3` [SKA-81, 7,8-Dihydro-6H-indeno[4,5-d]thiazol-2-amine]: the melting point turned out to be 195 °C. Besides, the “effect of structural change” value on KCa3.1 [1] is given as “reduction in potency”.

Regarding `CC1Cc2sc(N)nc2-c2ccccc21` (stereo not shown) [SKA-113, 5-Methyl-4,5-dihydronaphtho[1,2-d]thiazol-2-amine], the melting point is 109 °C (dec.). Further, on KCa3.1 [1], the “effect of structural change” value was “reduced both potency and selectivity”. As to `Nc1nc2c(cc(Cl)c3ccccc32)s1` [SKA-72, 5-Chloronaphtho[1,2-d]thiazol-2-amine], the melting point is 253 °C. The half-maximal effective concentration (EC50) at human KCa2.3 (setting [6]) was found to be 335 nM. The EC50 on KCa3.1 [1] (setting [5]) was found to be 110 nM.

Turning to `COc1cccc2c1CCc1sc(N)nc1-2` [SKA-114, 6-Methoxy-4,5-dihydronaphtho[1,2-d]thiazol-2-amine], the melting point came to 200 °C. On KCa3.1 [1], the “effect of structural change” value was “reduced both potency and selectivity”. On to `COc1cc2sc(N)nc2c2ccccc12` [SKA-117, 5-Methoxynaphtho[1,2-d]thiazol-2-amine], for which the melting point came to 213 °C. For the same molecule, at KCa3.1 [1], the “effect of structural change” value is “reduced potency and selectivity”. On to `Clc1ccccc1C(c1ccccc1)(c1ccccc1)n1cccn1` [TRAM-34, 1-[(2-chlorophenyl)diphenylmethyl]-1H-pyrazole, reference compound], for which the “effect on the potentiation of BK-induced relaxation by SKA-111/SKA-121” value in series [3] is “prevented the increase of relaxation; also recorded: prevented this potentiation”.
